{"source": "patent US20240285600A1", "about": "“NOVEL MKRN1 INHIBITOR AND PHARMACEUTICAL COMPOSITION FOR PREVENTING OR TREATING OBESITY OR FATTY LIVER COMPRISING THE SAME” (UIF (University Industry Foundation), Yosei University, priority 2023, published 2024)", "key": {"[1]": {"tested_on": "wild-type mice fed an HFHF diet", "assay": "Therapeutic effect on steatohepatitis in mice fed an HFHF diet, ebastine after 16 weeks", "assay_type": "in vivo", "conditions": "HFHF diet 20 weeks", "description": "(§1) Body weights were measured once every 3 to 4 days for 20 weeks, and the liver was isolated at the end of the experiment. Thereafter, a histological examination was performed."}, "[2]": {"tested_on": "wild-type mice fed a CDAHFD", "assay": "Anti-steatohepatitis effect in mice fed a CDAHFD, ebastine after 2 weeks", "assay_type": "in vivo", "conditions": "CDAHFD 6 weeks, vs control", "description": "Body weights were measured once every 3 to 4 days for 6 weeks, and the liver was isolated at the end of the experiment. Thereafter, a histological examination was performed."}, "[3]": {"tested_on": "wild-type mice fed an HFHF diet", "assay": "Anti-obesity/anti-steatohepatitis effect in mice fed an HFHF diet, ebastine after 4 weeks", "assay_type": "in vivo", "conditions": "HFHF diet 20 weeks", "description": "as §1"}, "[4]": {"tested_on": "HepG2 cells", "assay": "Fat accumulation in HepG2 cells treated with AMPK activator and PAOA", "assay_type": "cell-based", "conditions": "PAOA 1 mM, FIG. 8", "description": "Specifically, HepG2 cells were cultured, and then treated with various types of AMPK activators. Thereafter, the cells were treated with palmitic acid and oleic acid (PAOA) at a concentration of 1 mM, and further cultured, and the degree of fat accumulation was then confirmed."}, "[5]": {"tested_on": "AMPK", "conditions": "HepG2 cells, cultured for 16 or 24 hours, FIG. 9"}}}
{"smiles": "CC(C)(C)c1ccc(C(=O)CCCN2CCC(OC(c3ccccc3)c3ccccc3)CC2)cc1", "note": "[ebastine]", "values": [{"measurement": "weight of the liver", "setting": "[1]; ebastine 5 mg/kg after 16 weeks, FIG. 15C", "result": "lowest"}, {"measurement": "body weight change", "setting": "[1]; ebastine 1 and 5 mg/kg after 16 weeks (for 4 weeks), vs control, FIG. 15A", "result": "no difference"}, {"measurement": "liver shape observed with the naked eye", "setting": "[1]; ebastine after 16 weeks, FIG. 15B", "result": "close to a normal shape"}, {"measurement": "expression level of MKRN1 in the liver (immunohistochemistry)", "setting": "[1]; ebastine after 16 weeks, vs control, FIG. 15D", "result": "decreased"}, {"measurement": "fat accumulation in the liver (H&E)", "setting": "[1]; ebastine after 16 weeks, vs control, FIG. 15E", "result": "almost no fat accumulated in the liver"}, {"measurement": "liver fibrosis (Sirius Red)", "setting": "[1]; ebastine after 16 weeks, vs control, FIG. 15F", "result": "did not progress"}, {"measurement": "liver inflammation (F4/80 IHC)", "setting": "[1]; ebastine after 16 weeks, vs control, FIG. 15G", "result": "suppressed"}, {"measurement": "expression levels of fibrosis- and inflammation-related genes in the liver (RT-PCR)", "setting": "[1]; ebastine after 16 weeks, vs control, FIG. 15H", "result": "generally suppressed"}, {"measurement": "body weight", "setting": "[2]; ebastine 1 and 5 mg/kg after 2 weeks, FIG. 14A", "result": "no significant difference"}, {"measurement": "liver condition observed with the naked eye", "setting": "[2]; ebastine after 2 weeks, FIG. 14B", "result": "appeared similar"}, {"measurement": "liver weight", "setting": "[2]; ebastine after 2 weeks, FIG. 14C", "result": "no difference"}, {"measurement": "expression level of MKRN1 in the liver (immunohistochemistry)", "setting": "[2]; ebastine after 2 weeks, FIG. 14D", "result": "decreased"}, {"measurement": "fat accumulation in the liver (H&E)", "setting": "[2]; ebastine after 2 weeks, FIG. 14E", "result": "almost no fat accumulated in the liver"}, {"measurement": "liver fibrosis (Sirius Red)", "setting": "[2]; ebastine after 2 weeks, FIG. 14F", "result": "did not progress"}, {"measurement": "liver inflammation (F4/80 IHC)", "setting": "[2]; ebastine after 2 weeks, FIG. 14G", "result": "suppressed"}, {"measurement": "weight of the liver", "setting": "[3]; ebastine 5 mg/kg after 4 weeks, FIG. 13C", "result": "lowest"}, {"measurement": "body weight gain", "setting": "[3]; ebastine 1 and 5 mg/kg after 4 weeks, vs control, FIG. 13A", "result": "less"}, {"measurement": "liver shape observed with the naked eye", "setting": "[3]; ebastine after 4 weeks, FIG. 13B", "result": "close to a normal shape"}, {"measurement": "expression level of MKRN1 in the liver (immunohistochemistry)", "setting": "[3]; ebastine after 4 weeks, vs control", "result": "decreased"}, {"measurement": "fat accumulation in the liver (H&E)", "setting": "[3]; ebastine after 4 weeks, vs control, FIG. 13E", "result": "almost no fat accumulated in the liver"}, {"measurement": "liver fibrosis (Sirius Red)", "setting": "[3]; ebastine after 4 weeks, vs control, FIG. 13F", "result": "did not progress"}, {"measurement": "liver inflammation (F4/80 IHC)", "setting": "[3]; ebastine after 4 weeks, vs control, FIG. 13G", "result": "suppressed"}, {"measurement": "degree of fat accumulation", "setting": "[4]", "result": "effective in suppressing fat accumulation"}, {"measurement": "amount of AMPK", "setting": "[5]", "result": "increased"}, {"measurement": "amount of phosphorylated AMPK", "setting": "[5]", "result": "increased"}]}
